Results from article PMC3923439, “Anti-inflammatory properties of a novel peptide interleukin 1 receptor antagonist” (Journal of Neuroinflammation, 2014).

Assays:
[1] = tested on: LPS-induced neuroinflammation; test: Lipopolysaccharide-induced impairment of social behavior; type: in vivo; settings: rat, Ana 100 mg/kg s.c.
Description: The peripheral administration of LPS, the active fragment of bacterial endotoxin, results in an increase in the plasma levels of all proinflammatory cytokines and behavioral depression. LPS-induced behavioral depression was assessed by measuring the reduction of the duration of social interaction during 4-minute sessions. Six- to seven-week-old rats were handled for five days, habituated to the test cages and the experiment room and trained for social interaction with three-week-old juvenile rats introduced into the test cage for four minutes two days before the actual experiment. On the day of the experiment, the rats were intraperitoneally injected (i.p.) with saline or LPS (Escherichia coli 0111:B4; Sigma-Aldrich) dissolved in saline (250 μg/kg). Immediately after the i.p. injection, Ilantide-t (Ila; 10 mg/kg, equivalent to 2.1 μmol/kg), Ana ([…], equivalent to 5.8 μmol/kg) or saline was injected subcutaneously. The volume of all of the injections was 1.0 ml/kg. Six experimental groups were used: vehicle i.p./vehicle s.c. (veh/veh; n = 10), vehicle i.p./Ilantide-t s.c. (veh/Ila; n = 8), vehicle i.p./Ana s.c. (veh/Ana; n = 9), LPS i.p./vehicle s.c. (LPS/veh; n = 10), LPS i.p./Ilantide-t s.c. (LPS/Ila; n = 11) and LPS i.p./Ana s.c. (LPS/Ana; n = 11). The injections and weighing of the rats were performed immediately after the first test session (0 h), and the animals were tested and weighed again 2, 4, 6, 8, and 24 hours later. Different juvenile animals were presented on each occasion. Social interaction consisted of anogenital sniffing, licking and chewing the fur of the juveniles by the experimental animals and was monitored with a video camera. […] The duration of social interaction at each time point is expressed as the percentage of baseline values and was averaged for each experimental group. Social interaction was scored by an observer who was blinded to the treatment of the animals. For evaluation of levels of pro- and anti-inflammatory cytokines in blood, rats were injected with LPS and then immediately with either vehicle (n = 8) or Ilantide-t (n = 8) as described above. In addition, a control group of animals (n = 4) was treated with Ilantide-t alone (control). Blood samples were collected at 0, 2 and 6 hours after injections as described for the pharmacokinetics study and stored at -20°C until use. The levels of IL-6, IFN-γ and IL-10 were determined using corresponding rat ELISA kits according to the manufacturer’s protocols (all from BD Biosciences, San Diego, CA, USA).

[2] = tested on: neonatal rat pancreatic islets; test: IL-1β-induced rat islet cell apoptosis (cell death detection ELISA); type: cell-based; settings: rat islets, 8.68 nM (150 pg/ml) IL-1β, 24 hours
Description: Neonatal rat islets were isolated from 3- to 6-day-old outbred Wistar rats (Taconic, Ejby, Denmark) as previously described. Islets were precultured and maintained in RPMI 1640 medium (Gibco/Life Technologies) supplemented with 20 mmol/L HEPES buffer, 0.038% (wt/vol) NaHCO3, 100 U/ml penicillin, 100 µg/ml streptomycin and 10% (vol/vol) newborn calf serum (NCS) at 37°C in humidified atmospheric air. Prior to experimentation, the islets were randomly distributed to 24-well dishes and incubated for 2 hours in RPMI 1640 medium supplemented as described above, but with 0.5% (vol/vol) NCS relevant reagents were added as indicated.
(§1) For cell death detection, rat islets were incubated with 150 pg/ml IL-1β (BD Pharmingen, San Diego, CA, USA) alone or in combination with various concentrations of Ana and Ilantide for 24 hours at 37°C in humidified atmospheric air. Rat islet cell death was assessed by cell death detection ELISA (Roche, Lund, Sweden) as previously described. As a surrogate measure of nitric oxide production, Griess reagent (1:1 aqueous mixture of 0.1% naphthylethylenediamine hydrochloride and 1% sulfanilamide + 5% H3PO4) was mixed in a 1:1 ratio with 100 μl of supernatant samples to determine the nitrite content in supernatants from the cell death assays described above.
Figure 7 Effect of Ilantide on interleukin 1β-induced rat islet cell apoptosis. Rat pancreatic islets were preincubated for 30 minutes in the absence or presence of various concentrations of anakinra (A), Ilantide-m (B) or Ilantide-t (C) and then exposed to […] interleukin 1β (IL-1β) for 24 hours. Cytokine-induced apoptosis was determined by cell death detection enzyme-linked immunosorbent assay. Apoptosis rates are presented as fold induction compared with untreated control islets (white bars). The data from four independent experiments are presented as mean ± SEM. *P < 0.05 and **P < 0.01 compared with cultures treated with IL-1β alone (one-way analysis of variance followed by Dunnett’s post hoc test).

[3] = tested on: neonatal rat pancreatic islets; test: IL-1β-induced nitric oxide production (nitrite, Griess reagent); type: cell-based; settings: nitrites in supernatants of the apoptosis experiments, four independent experiments
Description: as §1
Figure 8 Effect of Ilantide on interleukin 1β-induced nitric oxide production. Anakinra (A) but none of the peptides, Ilantide-m (B) or Ilantide-t (C), inhibited interleukin 1β (IL-1β)-induced nitric oxide production. The results of four independent experiments are shown. *P < 0.05 and **P < 0.01 compared with cultures treated with IL-1 alone (one-way analysis of variance followed by Dunnett’s post hoc test).

Substance: Ana: recombinantly produced N-terminal methionylated, nonglycosylated version of human IL-1Ra [reference compound]
- Effect on LPS-induced body weight decrease ([1]; 24 hours after LPS 250 μg/kg i.p., Ilantide-t 10 mg/kg, P < 0.05): attenuated the anorexigenic effect of LPS
- Social behavior per se (without LPS) ([1]; Ilantide-t 10 mg/kg s.c., vehicle i.p.): did not modify social behavior per se
- Effect on LPS-induced depression of social activity (sickness behavior) ([1]; LPS 250 μg/kg i.p., Ilantide-t 10 mg/kg s.c., 2 to 24 hours): No significant effect
- Concentration giving maximal inhibition of IL-1β-induced apoptosis [2]: 86.8 µM
- Maximal inhibition of IL-1β-induced apoptosis ([2]; 30 minutes preincubation, four independent experiments): 64%
- Inhibition of IL-1β-induced nitric oxide production [3]: inhibited
